How the values were obtained:
[1] = biological target: T1, CD3ε expressed on Jurkat cells (Homo sapiens, UniProt P07766); assay: Binding assay of peptide tetramers on Jurkat cells by flow cytometry; details: for Kd: peptide tetramer on Alexa Fluor 488 streptavidin, CD3ε-expressing Jurkat cells, read-out: affinity (Kd); for binding of peptide tetramers to Jurkat cells: varying tetramer concentrations, 30 minutes on ice
T1 construct: against CD3ε expressed on Jurkat cells; host or cells: Jurkat T cells (E6-1)
Description: The results were analyzed using FlowJo software.

[2] = system: 2PK3 mouse B lymphoma cells; details: varying tetramer concentrations; cells lack TCR-CD3
[3] = biological target: T2, human recombinant CD3ε protein (Homo sapiens, UniProt P07766); assay: Biopanning of Ph.D.-7 phage display peptide library, sequencing of plaques; details: after the 5th round of biopanning, 18 out of 20 plaques; phage clone displaying the sequence
T2 construct: purchased Sino Biological
Description: 1.2 Biopanning: Screening of the Ph.D.-7 phage display peptide library on human recombinant CD3ε protein as the target protein was carried out according to the manufacturer's protocol with modifications. Briefly, 50 μl of a 50% aqueous suspension of Pierce protein A/G magnetic beads was washed with 1 ml of TBST washing buffer (tris-buffered saline with 0.1% tween) on a magnetic separator and blocked in blocking buffer (0.1 M NaHCO3 (pH 8.6) with 0.5% (w/v) BSA) for 1 h at 4° C. on a rotator. Two picomoles of target protein was mixed with 10^11 pfu (plaque-forming unit) of the phage library in 200 μl of TBST buffer and incubated for 15 minutes at room temperature on a rotator and then incubated with pre-washed and pre-blocked magnetic beads for 15 minutes at room temperature on a rotator. After the microbeads were washed vigorously for 15 times with 1 ml TBST, the bound phage was eluted by 1 ml of glycine buffer (0.2 M Glycine-HCl (pH 2.2)+0.1% (w/v) BSA) and neutralized by addition of 150 μl of 1 M Tris-HCl (pH 9.1). […]
1.3 DNA Sequencing of Phage Clones: After the third and fifth round of biopanning, the ssDNA of selected phage clones was harvested following the standard protocol (NEB). […] The purified DNA of each clone was sequenced by Sanger sequencing (UAB Genomics Core Laboratories) using the −96 gIII primer and analyzed using Geneious Prime 2019 software suite.

T1 sequence (P07766 23-207): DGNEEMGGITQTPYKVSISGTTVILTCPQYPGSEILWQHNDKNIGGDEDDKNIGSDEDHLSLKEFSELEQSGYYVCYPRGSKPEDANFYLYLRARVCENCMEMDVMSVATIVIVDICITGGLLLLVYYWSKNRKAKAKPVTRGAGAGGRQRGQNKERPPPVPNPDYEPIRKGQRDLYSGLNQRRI
T1 sequence (P09693 23-182 partner): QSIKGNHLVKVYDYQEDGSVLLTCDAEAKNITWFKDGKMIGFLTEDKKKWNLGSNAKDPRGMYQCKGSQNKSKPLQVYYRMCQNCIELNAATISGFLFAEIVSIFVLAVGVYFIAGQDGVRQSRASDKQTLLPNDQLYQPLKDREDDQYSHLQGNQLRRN
T1 sequence (P04234 22-171 partner): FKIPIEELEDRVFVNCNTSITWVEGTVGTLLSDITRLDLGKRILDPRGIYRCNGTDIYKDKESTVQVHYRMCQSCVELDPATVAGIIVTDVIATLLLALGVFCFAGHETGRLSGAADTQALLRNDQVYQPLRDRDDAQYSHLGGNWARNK
T1 sequence (P20963 22-164 partner): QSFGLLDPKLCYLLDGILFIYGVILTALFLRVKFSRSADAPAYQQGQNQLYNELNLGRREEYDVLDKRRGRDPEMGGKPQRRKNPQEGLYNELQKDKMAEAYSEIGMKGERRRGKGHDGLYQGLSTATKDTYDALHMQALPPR
T1 sequence (P01848 whole entry partner): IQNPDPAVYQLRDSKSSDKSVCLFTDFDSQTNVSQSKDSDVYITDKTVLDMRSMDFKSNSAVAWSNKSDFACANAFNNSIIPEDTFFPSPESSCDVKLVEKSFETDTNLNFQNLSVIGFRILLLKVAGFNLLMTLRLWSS
T1 sequence (P01850 whole entry partner): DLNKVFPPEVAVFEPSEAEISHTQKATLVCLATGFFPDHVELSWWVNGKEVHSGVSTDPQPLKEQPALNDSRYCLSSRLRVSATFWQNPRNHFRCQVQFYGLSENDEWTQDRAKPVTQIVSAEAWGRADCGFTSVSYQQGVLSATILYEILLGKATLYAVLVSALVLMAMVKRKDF
T2 sequence (P07766 23-207): as the sequence (P07766 23-207) above

Substance	Kd [1] [µM]	binding of peptide tetramers to Jurkat cells [1]	binding of peptide tetramers to 2PK3 cells [2]	share of tested plaques occupied by the clone [3] [%]
WSLGYTGGGGS [SEQ ID NO: 31]-PEG6-K-biotin [anti-CD3ε peptide 13 tetramer]	~100	incremental binding to the Jurkat cells in a dose-dependent manner	no specific attachment	
WSLGYTG [anti-CD3ε peptide 13]				90
FWSSPQMGGGS [SEQ ID NO: 30]-PEG6-K-biotin [anti-CD3ε peptide 11 tetramer]	~100	incremental binding to the Jurkat cells in a dose-dependent manner	no specific attachment	
